ChEMBL document CHEMBL5096232, “Exploring the NCS-382 Scaffold for CaMKIIα Modulation: Synthesis, Biochemical Pharmacology, and Biophysical Characterization of Ph-HTBA as a Novel High-Affinity Brain-Penetrant Stabilizer of the CaMKIIα Hub Domain” (J Med Chem, 2022)
Values belong to the molecule of their own block, whether it stands above or below them. Active and inactive are the calls of the source. The rule behind the calls is not given here.

Legend:
[1] = target: T1, Calcium/calmodulin-dependent protein kinase type II subunit alpha (Rattus norvegicus, UniProt P11275); assay: Displacement of [3H]NCS-382 from CaMK2alpha in rat brain cortical membrane homogenates measured after 1 hr by TopCount scintillation counting method; type: cell membranes, Cortex
T1 sequence (P11275 whole entry): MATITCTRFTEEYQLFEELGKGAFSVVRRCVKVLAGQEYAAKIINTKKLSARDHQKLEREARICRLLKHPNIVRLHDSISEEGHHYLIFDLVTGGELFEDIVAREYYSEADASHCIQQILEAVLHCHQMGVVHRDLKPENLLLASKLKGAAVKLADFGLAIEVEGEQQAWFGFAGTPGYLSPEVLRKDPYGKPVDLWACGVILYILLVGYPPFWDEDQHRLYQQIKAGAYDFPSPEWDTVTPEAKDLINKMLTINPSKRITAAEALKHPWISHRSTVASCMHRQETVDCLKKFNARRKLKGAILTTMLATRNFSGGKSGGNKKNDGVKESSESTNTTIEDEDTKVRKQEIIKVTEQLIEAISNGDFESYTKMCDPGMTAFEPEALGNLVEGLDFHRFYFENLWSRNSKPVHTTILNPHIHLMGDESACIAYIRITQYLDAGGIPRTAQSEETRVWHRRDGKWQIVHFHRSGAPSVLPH

[2] = target: T1, Calcium/calmodulin-dependent protein kinase type II subunit alpha; assay: Displacement of [3H]HOCPCA from native CaMK2alpha in rat brain cortical membrane homogenates measured after 1 hr by TopCount scintillation counting method; type: cell membranes, Cortex
[3] = target: T1, Calcium/calmodulin-dependent protein kinase type II subunit alpha; assay: Displacement of [3H]HOCPCA from recombinant rat CaMK2alpha expressed in HEK293T cells measured after 1 hr by liquid scintillation counting method; type: cell-based
[4] = target: T2, Calcium/calmodulin-dependent protein kinase type II subunit alpha (Homo sapiens, UniProt Q9UQM7); assay: Binding affinity to recombinant human CaMK2alpha 6x hub domain (345 to 475 residues) expressed in Escherichia coli BL21 DE3 assessed as dissociation constant by surface plasmon resonance assay
T2 sequence (Q9UQM7 whole entry, the tested form may be a part): as the sequence (P11275 whole entry) above, with N324S counted along it

[5] = target: T2, Calcium/calmodulin-dependent protein kinase type II subunit alpha; assay: Binding affinity to recombinant human CaMK2alpha 6x hub domain (345 to 475 residues) expressed in Escherichia coli BL21 DE3 assessed as thermal stability by measuring change in melting temperature at 5 to 1280 uM by SYPRO orange dye based differential scanning fluorimetry; conditions: dose 5-1280 µM
[6] = target: T2, Calcium/calmodulin-dependent protein kinase type II subunit alpha; conditions: filed as modulator
Description: Binding affinity to recombinant human CaMK2alpha 6x hub domain (345 to 475 residues) expressed in Escherichia coli BL21 DE3 assessed as dissociation rate constant by surface plasmon resonance assay

[7] = target: T2, Calcium/calmodulin-dependent protein kinase type II subunit alpha; assay: Binding affinity to recombinant human CaMK2alpha 6x hub domain (345 to 475 residues) Trp403 residue assessed as quenching of intrinsic tryptophan fluorescence at 9.8 to 29 uM by Trp flip assay; conditions: filed as modulator, dose 9.8-29 µM
[8] = Metabolic stability in human liver microsomes assessed as intrinsic clearance per mg of protein at 0.5 uM incubated in presence of NADPH regenerating system and measured for 45 mins by LC-MS/MS analysis; type: ADME, Microsome; conditions: read-out: CLH
[9] = Metabolic stability in mouse liver microsomes assessed as intrinsic clearance per mg of protein at 0.5 uM incubated in presence of NADPH regenerating system and measured for 45 mins by LC-MS/MS analysis; type: ADME, Microsome; conditions: read-out: CLH
[10] = Metabolic stability in human hepatocytes assessed as intrinsic clearance per 10^6 cells at 0.5 uM incubated in presence of NADPH regenerating system and measured for 120 mins by LC-MS/MS analysis; type: ADME, cell-based, Hepatocyte; conditions: read-out: CLH
[11] = Metabolic stability in mouse hepatocytes assessed as intrinsic clearance per 10^6 cells at 0.5 uM incubated in presence of NADPH regenerating system and measured for 120 mins by LC-MS/MS analysis; type: ADME, cell-based, Hepatocyte; conditions: read-out: CLH
[12] = Drug concentration in C57BL/6J mouse brain at 10 mg/kg, po by HPLC-MS/MS analysis; type: ADME, organism-based; conditions: in vivo
[13] = Drug concentration in C57BL/6J mouse plasma at 10 mg/kg, po by HPLC-MS/MS analysis; type: ADME, organism-based; conditions: in vivo
[14] = Ratio of drug concentration in brain to plasma in C57BL/6J mouse at 10 mg/kg, po measured at 30 mins by HPLC-MS/MS analysis; type: ADME, organism-based; conditions: read-out: BPR
[15] = Unbound brain-to-plasma partition coefficient in C57BL/6J mouse at 10 mg/kg, po measured at 30 mins by HPLC-MS/MS analysis; type: ADME, organism-based; conditions: read-out: K(p,uu,brain)
[16] = tested on: BCRP; assay: Apparent permeability across apical to basolateral side in MDCK-II-BCRP cells at 3 uM measured after 60 to 90 mins by LC-MS/MS analysis; type: ADME, cell-based, Canis lupus familiaris; conditions: dog, time 60-90 min
[17] = tested on: BCRP; assay: Apparent permeability across basolateral to apical side in MDCK-II-BCRP cells at 3 uM measured after 60 to 90 mins by LC-MS/MS analysis; type: ADME, cell-based, Canis lupus familiaris; conditions: dog, time 60-90 min
[18] = tested on: MDR1 (P-gp); assay: Apparent permeability across apical to basolateral side in MDCKII-MDR1 cells at 3 uM measured after 60 to 90 mins by LC-MS/MS analysis; type: ADME, cell-based, Canis lupus familiaris; conditions: dog, MDCK-MDR1, time 60-90 min
[19] = tested on: MDR1 (P-gp); assay: Apparent permeability across basolateral to apical side in MDCKII-MDR1 cells at 3 uM measured after 60 to 90 mins by LC-MS/MS analysis; type: ADME, cell-based, Canis lupus familiaris; conditions: dog, MDCK-MDR1, time 60-90 min
[20] = tested on: BCRP; assay: Apparent permeability across apical to basolateral side in MDCK-II-BCRP cells at 3 uM preincubated with BCRP inhibitor, Ko 143 for 15 to 30 mins followed by compound addition and measured after 60 to 90 mins by LC-MS/MS analysis; type: ADME, cell-based, Canis lupus familiaris; conditions: dog, with Ko 143 (BCRP inhibitor; concentration not stated), time 60-90 min
[21] = tested on: BCRP; assay: Apparent permeability across basolateral to apical side in MDCK-II-BCRP cells at 3 uM preincubated with BCRP inhibitor, Ko 143 for 15 to 30 mins followed by compound addition and measured after 60 to 90 mins by LC-MS/MS analysis; type: ADME, cell-based, Canis lupus familiaris; conditions: dog, with Ko 143 (BCRP inhibitor; concentration not stated), time 60-90 min
[22] = tested on: MDR1 (P-gp); assay: Apparent permeability across apical to basolateral side in MDCKII-MDR1 cells at 3 uM preincubated with P-gp/BCRP transporter dual inhibitor, elacridar for 15 to 30 mins followed by compound addition and measured after 60 to 90 mins by LC-MS/MS analysis; type: ADME, cell-based, Canis lupus familiaris, MDCK-MDR1; conditions: dog, time 60-90 min
[23] = tested on: MDR1 (P-gp); assay: Apparent permeability across basolateral to apical side in MDCKII-MDR1 cells at 3 uM preincubated with P-gp/BCRP transporter dual inhibitor, elacridar for 15 to 30 mins followed by compound addition and measured after 60 to 90 mins by LC-MS/MS analysis; type: ADME, cell-based, Canis lupus familiaris, MDCK-MDR1; conditions: dog, time 60-90 min
[24] = Half life in ip dosed mouse; type: ADME, organism-based; conditions: in vivo

Structure (SMILES): O=C(O)/C=C1\CCCc2cc(F)ccc2C1O (stereo unspecified)
Ki [1]: 110 nM

Structure (SMILES): O=C(O)/C=C1\CCCc2c(/C=C/c3c(Cl)cccc3Cl)cccc2C1O (stereo unspecified)
Ki [1]: 110 nM

Structure (SMILES): O=C(O)/C=C1\CCCc2cc(/C=C/c3ccccc3)ccc2C1O (stereo unspecified)
Ki [1]: 40 nM

Structure (SMILES): O=C(O)/C=C1\CCCc2c(/C=C/c3ccccc3)cccc2C1O (stereo unspecified)
Ki [1]: 14000 nM
Ki [2]: 81 nM
Activity [7]: Active

Structure (SMILES): O=C(O)/C=C1\CCCc2ccc(-c3ccccc3)cc2C1O (stereo unspecified)
Ki [1]: 14000 nM

Structure (SMILES): Cc1ccc2c(c1)CCC/C(=C\C(=O)O)C2O (stereo unspecified)
Ki [1]: 320 nM

Structure (SMILES): O=C(O)C1=CC(O)CC1 (stereo unspecified)
Ki [1]: 160 nM
Ki [2]: 130 nM
Ki [3]: 1800 nM

Now from value to molecule:

Ki [1]: 340 nM
Ki [2]: 590 nM
Ki [3]: 3900 nM
Kd [4]: 8900 nM
ΔTm [5]: 16.7 °C
Kdiss [6]: 0.75 s⁻¹
Structure (SMILES): O=C(O)/C=C1\CCCc2ccccc2C1O (stereo unspecified)

microsomal CLint at 0.5 µM [8]: > 9.9 µL/min/mg
microsomal CLint at 0.5 µM [9]: > 9.9 µL/min/mg
hepatocyte CLint at 0.5 µM [10]: 8.6 µL/min/1e6 cells
hepatocyte CLint at 0.5 µM [11]: 65 µL/min/1e6 cells
Ct [12]: 99.1 ng/mL
Cp [13]: 1450 ng/mL
Kp at 0.5 h [14]: 0.1
Kp uu at 0.5 h [15]: 0.85
Papp A→B at 3 µM [16]: 15.8 ×10⁻⁶ cm/s
Papp B→A at 3 µM [17]: 19.4 ×10⁻⁶ cm/s
Papp A→B at 3 µM [18]: 13 ×10⁻⁶ cm/s
Papp B→A at 3 µM [19]: 16.3 ×10⁻⁶ cm/s
Papp A→B at 3 µM [20]: 15.9 ×10⁻⁶ cm/s
Papp B→A at 3 µM [21]: 16.5 ×10⁻⁶ cm/s
Papp A→B at 3 µM [22]: 12.9 ×10⁻⁶ cm/s
Papp B→A at 3 µM [23]: 15 ×10⁻⁶ cm/s
half-life [24]: 18 min
Structure (SMILES): O=C([O-])/C=C1\CCCc2cc(-c3ccccc3)ccc2C1O.[Na+] (stereo unspecified)

Ki [1]: 56 nM
Structure (SMILES): O=C(O)/C=C1\CCCc2c(CCc3ccccc3)cccc2C1O (stereo unspecified)

Ki [1]: 230 nM
Structure (SMILES): O=C(O)/C=C1\CCCc2c(Br)cccc2C1O (stereo unspecified)
